Drawing on ChEMBL document CHEMBL1139073, “Inhibition of Src kinase activity by 7-ethynyl-4-phenylamino-3-quinolinecarbonitriles: identification of SKS-927” (Bioorg Med Chem Lett, 2007), this text covers IC50, solubility and Papp for 11 molecules.

pIC50: −log10 of the molar value. ≈ marks a conversion by molar mass, not a printed value.

In data set [1] the target is Proto-oncogene tyrosine-protein kinase Src (Homo sapiens, UniProt P12931). Briefly: Inhibition of Src activity. The data set is classed as functional.
In data set [2] the target is Proto-oncogene tyrosine-protein kinase Src (Rattus norvegicus, UniProt Q9WUD9). Nature of the data set: Inhibition of Src in rat fibroblasts.
Data set [3] can be described thus: Inhibition of IGFR. On the set-up: species or system Homo sapiens.
For data set [4], the target named is RAC-alpha serine/threonine-protein kinase (Homo sapiens, UniProt P31749). Nature of the data set: Inhibition of AKT.
Data set [5] concerns the target Cyclin-dependent kinase 4 (Homo sapiens, UniProt P11802). Nature of the data set: Inhibition of CDK4.
Data set [6] can be described thus: Solubility at neutral pH. The data set is classed as physicochemical.
For data set [7], the target named is Epidermal growth factor receptor (Homo sapiens, UniProt P00533).
The nature of data set [8]: Permeability across artificial membrane by PAMPA. The conditions noted are these: read-out: permeability. Type of data set: ADME. For orientation: PAMPA measures passive passage across an artificial lipid membrane.
Data set [9] concerns the target Vascular endothelial growth factor receptor 2 (Homo sapiens, UniProt P35968). Briefly: Inhibition of KDR.
The nature of data set [10]: Solubility at pH 4.5. Type of data set: physicochemical. The conditions noted are these: buffer.

Sequence of Proto-oncogene tyrosine-protein kinase Src (Homo sapiens, UniProt P12931) (P12931 2-536 limits assumed): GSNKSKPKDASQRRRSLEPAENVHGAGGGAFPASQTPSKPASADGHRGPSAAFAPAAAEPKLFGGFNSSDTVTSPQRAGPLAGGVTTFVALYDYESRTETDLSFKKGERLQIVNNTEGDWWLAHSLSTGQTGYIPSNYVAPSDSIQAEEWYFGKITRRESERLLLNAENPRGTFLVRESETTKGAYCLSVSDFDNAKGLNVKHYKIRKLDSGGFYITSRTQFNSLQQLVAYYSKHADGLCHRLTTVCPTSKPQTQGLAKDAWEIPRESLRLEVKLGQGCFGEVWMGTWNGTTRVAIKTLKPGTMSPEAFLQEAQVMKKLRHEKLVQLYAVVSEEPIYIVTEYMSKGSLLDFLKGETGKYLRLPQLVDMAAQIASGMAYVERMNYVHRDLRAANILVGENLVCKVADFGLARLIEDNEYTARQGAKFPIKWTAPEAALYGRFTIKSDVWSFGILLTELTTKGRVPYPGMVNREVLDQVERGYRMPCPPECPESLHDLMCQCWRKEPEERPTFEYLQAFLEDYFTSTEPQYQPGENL
Sequence of Proto-oncogene tyrosine-protein kinase Src (Rattus norvegicus, UniProt Q9WUD9) (Q9WUD9 2-536 limits assumed): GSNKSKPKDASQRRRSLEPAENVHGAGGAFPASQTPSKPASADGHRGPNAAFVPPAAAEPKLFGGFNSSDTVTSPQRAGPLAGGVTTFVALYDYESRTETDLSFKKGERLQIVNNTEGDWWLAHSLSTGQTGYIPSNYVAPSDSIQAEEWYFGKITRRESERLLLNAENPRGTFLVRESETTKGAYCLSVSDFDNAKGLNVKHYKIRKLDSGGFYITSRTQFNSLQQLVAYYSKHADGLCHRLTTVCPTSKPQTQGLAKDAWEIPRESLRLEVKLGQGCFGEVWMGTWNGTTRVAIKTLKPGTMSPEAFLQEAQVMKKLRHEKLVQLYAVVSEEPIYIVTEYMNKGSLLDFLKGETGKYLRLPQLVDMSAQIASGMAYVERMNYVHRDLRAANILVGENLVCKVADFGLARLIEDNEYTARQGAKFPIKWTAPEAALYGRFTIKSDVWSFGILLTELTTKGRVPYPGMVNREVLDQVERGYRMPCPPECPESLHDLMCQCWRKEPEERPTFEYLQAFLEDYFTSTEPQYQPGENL
Sequence of Cyclin-dependent kinase 4 (P11802 whole entry): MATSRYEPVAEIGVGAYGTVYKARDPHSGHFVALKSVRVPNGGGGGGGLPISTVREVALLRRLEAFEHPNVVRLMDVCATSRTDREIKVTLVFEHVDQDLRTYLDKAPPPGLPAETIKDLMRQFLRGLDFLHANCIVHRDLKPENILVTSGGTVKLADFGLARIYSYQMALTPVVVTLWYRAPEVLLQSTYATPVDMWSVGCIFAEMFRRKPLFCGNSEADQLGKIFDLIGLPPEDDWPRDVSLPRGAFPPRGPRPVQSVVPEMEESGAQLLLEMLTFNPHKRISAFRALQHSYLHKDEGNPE
Sequence of Vascular endothelial growth factor receptor 2 (P35968 whole entry): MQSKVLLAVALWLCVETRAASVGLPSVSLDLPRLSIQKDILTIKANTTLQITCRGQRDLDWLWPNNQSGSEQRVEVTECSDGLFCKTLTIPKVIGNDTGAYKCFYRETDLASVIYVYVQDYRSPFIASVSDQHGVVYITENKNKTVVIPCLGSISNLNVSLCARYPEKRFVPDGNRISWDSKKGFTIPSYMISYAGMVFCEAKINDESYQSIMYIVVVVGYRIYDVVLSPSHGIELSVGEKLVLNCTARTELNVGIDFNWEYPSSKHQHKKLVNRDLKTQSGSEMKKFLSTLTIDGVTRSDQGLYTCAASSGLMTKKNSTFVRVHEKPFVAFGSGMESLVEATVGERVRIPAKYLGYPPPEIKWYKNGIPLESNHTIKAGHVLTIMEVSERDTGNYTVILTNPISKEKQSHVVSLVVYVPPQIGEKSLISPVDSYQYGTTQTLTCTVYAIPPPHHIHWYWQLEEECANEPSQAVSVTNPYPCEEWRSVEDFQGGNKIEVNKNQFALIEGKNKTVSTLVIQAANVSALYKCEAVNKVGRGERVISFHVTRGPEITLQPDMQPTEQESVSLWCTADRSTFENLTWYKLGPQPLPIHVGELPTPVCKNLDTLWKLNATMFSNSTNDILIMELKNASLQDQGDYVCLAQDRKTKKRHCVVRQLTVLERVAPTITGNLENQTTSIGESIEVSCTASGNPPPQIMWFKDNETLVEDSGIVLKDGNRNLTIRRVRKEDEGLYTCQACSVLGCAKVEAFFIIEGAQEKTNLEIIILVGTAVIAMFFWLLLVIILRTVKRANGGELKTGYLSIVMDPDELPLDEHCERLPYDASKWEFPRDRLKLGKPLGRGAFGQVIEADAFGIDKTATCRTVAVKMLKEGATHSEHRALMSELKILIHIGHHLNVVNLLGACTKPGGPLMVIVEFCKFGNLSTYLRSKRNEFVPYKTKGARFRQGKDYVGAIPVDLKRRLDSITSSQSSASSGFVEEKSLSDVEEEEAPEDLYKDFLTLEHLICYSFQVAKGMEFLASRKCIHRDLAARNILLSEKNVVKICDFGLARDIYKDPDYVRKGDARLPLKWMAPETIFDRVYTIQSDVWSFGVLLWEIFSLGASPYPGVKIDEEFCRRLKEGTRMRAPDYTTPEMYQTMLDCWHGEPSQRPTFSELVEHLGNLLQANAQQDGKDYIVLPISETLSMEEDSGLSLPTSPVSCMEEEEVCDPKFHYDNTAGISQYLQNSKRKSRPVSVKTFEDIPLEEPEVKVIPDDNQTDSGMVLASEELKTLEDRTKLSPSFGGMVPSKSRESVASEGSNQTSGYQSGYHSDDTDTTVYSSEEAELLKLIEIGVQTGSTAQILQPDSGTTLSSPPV
Sequence of RAC-alpha serine/threonine-protein kinase (P31749 whole entry): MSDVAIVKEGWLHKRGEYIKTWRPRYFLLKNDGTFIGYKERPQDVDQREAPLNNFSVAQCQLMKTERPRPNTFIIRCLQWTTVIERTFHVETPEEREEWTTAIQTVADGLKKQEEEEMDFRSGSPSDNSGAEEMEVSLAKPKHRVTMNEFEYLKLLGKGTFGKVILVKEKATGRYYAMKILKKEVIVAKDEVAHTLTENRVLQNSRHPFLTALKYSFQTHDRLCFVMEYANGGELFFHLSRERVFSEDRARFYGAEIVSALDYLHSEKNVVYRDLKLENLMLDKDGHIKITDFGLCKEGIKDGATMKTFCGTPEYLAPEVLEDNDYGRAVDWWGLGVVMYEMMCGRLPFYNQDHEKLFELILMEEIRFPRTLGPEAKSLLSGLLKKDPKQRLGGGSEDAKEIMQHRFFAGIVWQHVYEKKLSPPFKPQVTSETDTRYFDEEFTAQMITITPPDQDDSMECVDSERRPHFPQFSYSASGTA
Sequence of Epidermal growth factor receptor (P00533 whole entry): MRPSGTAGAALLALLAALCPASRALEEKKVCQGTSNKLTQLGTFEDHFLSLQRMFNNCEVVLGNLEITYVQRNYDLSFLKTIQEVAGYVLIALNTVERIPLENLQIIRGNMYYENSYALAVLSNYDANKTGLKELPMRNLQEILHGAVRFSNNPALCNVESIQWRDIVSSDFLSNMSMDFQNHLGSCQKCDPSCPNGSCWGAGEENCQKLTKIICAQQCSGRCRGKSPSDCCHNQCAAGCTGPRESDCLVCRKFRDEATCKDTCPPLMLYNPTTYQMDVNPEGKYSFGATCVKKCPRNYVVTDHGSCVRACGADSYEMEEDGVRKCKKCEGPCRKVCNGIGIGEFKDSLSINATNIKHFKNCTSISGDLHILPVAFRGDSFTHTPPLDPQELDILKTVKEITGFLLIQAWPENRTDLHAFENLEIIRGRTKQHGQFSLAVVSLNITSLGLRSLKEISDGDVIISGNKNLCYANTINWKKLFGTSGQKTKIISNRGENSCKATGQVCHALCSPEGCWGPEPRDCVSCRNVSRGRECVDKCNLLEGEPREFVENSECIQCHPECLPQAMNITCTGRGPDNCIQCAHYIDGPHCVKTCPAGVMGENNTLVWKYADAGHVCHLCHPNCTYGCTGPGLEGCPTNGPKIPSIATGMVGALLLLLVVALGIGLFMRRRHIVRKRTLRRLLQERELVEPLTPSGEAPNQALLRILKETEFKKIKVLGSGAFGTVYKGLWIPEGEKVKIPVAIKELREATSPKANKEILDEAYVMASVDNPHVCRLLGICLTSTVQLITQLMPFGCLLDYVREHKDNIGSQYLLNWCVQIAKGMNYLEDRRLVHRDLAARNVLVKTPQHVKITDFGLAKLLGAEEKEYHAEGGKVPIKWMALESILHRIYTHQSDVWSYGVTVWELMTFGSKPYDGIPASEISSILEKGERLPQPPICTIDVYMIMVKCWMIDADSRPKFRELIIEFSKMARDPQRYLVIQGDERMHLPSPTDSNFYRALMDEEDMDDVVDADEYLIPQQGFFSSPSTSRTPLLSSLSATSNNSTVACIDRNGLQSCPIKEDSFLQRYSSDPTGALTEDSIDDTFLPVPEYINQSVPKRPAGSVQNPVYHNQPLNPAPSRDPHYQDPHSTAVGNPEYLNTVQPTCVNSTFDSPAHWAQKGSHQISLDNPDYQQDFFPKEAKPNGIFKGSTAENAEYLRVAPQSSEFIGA

For `COc1cc(Nc2c(C#N)cnc3cc(C#CCCN(C)C)c(OC)cc23)c(Cl)cc1Cl`, the pIC50 in data set [1] was 8.31; in [2] it was 6.60.

As to `COc1cc2c(Nc3cc(OC)c(OC)c(OC)c3)c(C#N)cnc2cc1C#CCCN1CCN(C)CC1`, the pIC50 is 7.68 in data set [1] and 6.23 in data set [2].

For the molecule `COc1cc(Nc2c(C#N)cnc3cc(C#CCCN4CCN(C)CC4)ccc23)cc(OC)c1OC`, the pIC50 was 6.66 in data set [1] and 5.68 in [2].

`COc1cc(Nc2c(C#N)cnc3cc(C#CCCN4CCOCC4)c(OC)cc23)c(Cl)cc1Cl` had a pIC50 in data set [2] of 6.72.

Regarding `COc1cc(Nc2c(C#N)cnc3cc(C#CCCN4CCNCC4)c(OC)cc23)c(Cl)cc1Cl`, the pIC50 is 8.27 in data set [1] and 6.28 in [2].

For the molecule `COc1cc(Nc2c(C#N)cnc3cc(C#CCCN4CCN(C)CC4)ccc23)c(Cl)cc1Cl`, the negative-log IC50 (pIC50) in data set [1] is 7.55; in [2] it was 5.77.

Regarding `COc1cc2c(Nc3ccc(Cl)cc3Cl)c(C#N)cnc2cc1C#CCCN1CCN(C)CC1`, the pIC50 in data set [1] is 8.06; in data set [2] it was 6.37.

On to `CCOc1cc2c(Nc3cc(OC)c(Cl)cc3Cl)c(C#N)cnc2cc1C#CCCN1CCN(C)CC1`, for which the pIC50 in data set [1] is 8.39; in data set [2], 6.89.

For the molecule `COc1cc(Nc2c(C#N)cnc3cc(C#CCN4CCN(C)CC4)c(OC)cc23)c(Cl)cc1Cl`, the pIC50 was 7.96 in data set [1] and 6.13 in data set [2].

In the case of `COc1cc(Nc2c(C#N)cnc3cc(C#CCCN4CCN(C)CC4)c(OC)cc23)c(Cl)cc1Cl`, the negative logarithm of the IC50 (pIC50) in data set [3] was < 5.30; in data set [4], < 5.30; in data set [5], < 5.30; in [7], 6.14; in [1], 8.41; in [2], 7.14. For the same molecule, the pIC50 in data set [9] was < 5.30. The solubility in [6] was 5 µg/mL (≈ 9.53 µM); in data set [10], > 100 µg/mL. For the same molecule, the Papp in data set [8] turned out to be 6.8 ×10⁻⁶ cm/s.

Take `COc1cc(Nc2c(C#N)cnc3ccc(C#CCCN4CCN(C)CC4)cc23)c(Cl)cc1Cl`: the results for the pIC50 in [1] and in data set [2] were 6.64 and 5.41, respectively.

Usually pIC50 stands for the IC50 on a negative log10 scale, so that one unit is a factor of ten. Higher therefore signals a low IC50. Usually solubility stands for the dissolved amount per volume that the medium holds. High values mean much dissolved substance, low ones little dissolved substance.
